Consider 16 molecules from ChEMBL document CHEMBL1135488, “Prediction of volume of distribution values in humans for neutral and basic drugs using physicochemical measurements and plasma protein binding data” (J Med Chem, 2002).

A word on the Vd: it is a proportionality between amount in the body and measured concentration, not a real space. As usually defined, the chromatographic logD is lipophilicity estimated from chromatographic retention. Lower therefore signals lower lipophilicity. The pKa is the negative logarithm of the acid dissociation constant.

SMILES strings stand for the structures.

Data set [1] is described as follows: in vitro. The settings on record: human, plasma.
A short description of data set [2]: in vitro.
Data set [3] can be described thus: clinical. The settings on record: human, in vivo, iv.
Data set [4] in a line: physchem.
The nature of data set [5]: Ionisation constant (pKa). The data set is classed as physicochemical.
The conditions of data set [6]: pH 7.4.

On to `CC(=O)Nc1ccc(O)cc1` [ACETAMINOPHEN], for which the fraction unbound in data set [1] was 1; in data set [2] (tissues), 0.503. This molecule had a Vd in data set [3] of 0.95 L/kg. In addition, in data set [4], the chromatographic logD came to 0.38. Further, the pKa entry in data set [5] is given as “Not Active”. The Fraction ionised in data set [6] is on record as 0.

`CN1CCCC(n2nc(Cc3ccc(Cl)cc3)c3ccccc3c2=O)CC1` (stereo not given) [AZELASTINE]: the fraction unbound was found to be 0.17 in data set [1] and 0.004 in data set [2] (tissues). Besides, in data set [3], the Vd stood at 15 L/kg. Moreover, the chromatographic logD in data set [4] came out at 1.93. In data set [5], this molecule returned a pKa of 9.54. Moreover, the Fraction ionised in data set [6] stood at 0.993.

In turn, `COc1cc2c(c(OC)c1OC)-c1ccc(OC)c(=O)cc1[C@@H](NC(C)=O)CC2` [COLCHICINE] returned a Vd in data set [3] of 4.2 L/kg. For the same molecule, the chromatographic logD in data set [4] was 0.9. The Fraction ionised in data set [6] is recorded as 0.

Regarding `CCCCCc1cc(O)c2c(c1)OC(C)(C)[C@@H]1CCC(C)=C[C@@H]21` [DRONABINOL], the fraction unbound in data set [1] came out at 0.03; in data set [2] (tissues), 0.001. The molecule further came in with a Vd in data set [3] of 9.8 L/kg. Also, in data set [4], the chromatographic logD was determined as 6.8. This molecule also showed a Fraction ionised in data set [6] of 0.

Consider `CN1C[C@H](C(=O)N[C@]2(C)O[C@@]3(O)[C@@H]4CCCN4C(=O)[C@H](Cc4ccccc4)N3C2=O)C=C2c3cccc4[nH]cc(c34)C[C@H]21` [ERGOTAMINE], for which the fraction unbound stood at 0.02 in data set [1] and 0.003 in data set [2] (tissues). This molecule gave a Vd in data set [3] of 2.7 L/kg. Further, in data set [4], the chromatographic logD came out at 4.3. In data set [6], the Fraction ionised was found to be 0.074.

In turn, `CCOC(=O)C1=C(C)NC(C)=C(C(=O)OC)C1c1cccc(Cl)c1Cl` (stereo not given) [FELODIPINE] had a chromatographic logD in data set [4] of 4.52. Moreover, in data set [6], the Fraction ionised was determined as 0.

`CCC(C)n1ncn(-c2ccc(N3CCN(c4ccc(OCC5COC(Cn6cncn6)(c6ccc(Cl)cc6Cl)O5)cc4)CC3)cc2)c1=O` (stereo not given) [ITRACONAZOLE] returned a fraction unbound in data set [1] of 0.028. In data set [3], this molecule had a Vd of 3.9 L/kg. The chromatographic logD in data set [4] is 5.79. The pKa result in data set [5] is “Not Active”. This molecule had a Fraction ionised in data set [6] of 0.

In the case of `Cc1ncc([N+](=O)[O-])n1CCO` [METRONIDAZOLE], the figures for the fraction unbound in data set [1] and in data set [2] (tissues) were 0.89 and 0.609, respectively. This molecule also registered a distribution volume (Vd) in data set [3] of 0.74 L/kg. Besides, the pKa entry in data set [5] was “Not Active”. The molecule also showed a Fraction ionised in data set [6] of 0.

For the molecule `CCc1nn(CCCN2CCN(c3cccc(Cl)c3)CC2)c(=O)n1CCOc1ccccc1` [NEFAZODONE], the fraction unbound in data set [2] (tissues) was 0.008. This molecule came in with a distribution volume (Vd) in data set [3] of 0.51 L/kg. The same molecule displayed a chromatographic logD in data set [4] of 4.83. In addition, the pKa in data set [5] was determined as 6.79. Further, the Fraction ionised in data set [6] was determined as 0.197.

Consider `CN1CCC[C@H]1c1cccnc1` [NICOTINE], for which, in data set [2], the fraction unbound is 0.15. The same molecule came in with a Vd in data set [3] of 2.6 L/kg. The molecule further had a chromatographic logD in data set [4] of 0.23. Also, the Fraction ionised in data set [6] is reported as 0.834.

Turning to `CN/C(=C\[N+](=O)[O-])NCCSCc1csc(CN(C)C)n1` [NIZATIDINE], the fraction unbound in data set [1] worked out at 0.78; in data set [2] (tissues), 0.0289. This molecule had a Vd in data set [3] of 1.2 L/kg. Also, in data set [5], the pKa was 6.59. In data set [6], this molecule registered a Fraction ionised of 0.134.

As to `CC(=O)O[C@H]1C(=O)[C@@]2(C)[C@H]([C@H](OC(=O)c3ccccc3)[C@]3(O)C[C@H](OC(=O)[C@H](O)[C@@H](NC(=O)c4ccccc4)c4ccccc4)C(C)=C1C3(C)C)[C@]1(OC(C)=O)CO[C@@H]1C[C@@H]2O` [PACLITAXEL], the figures for the fraction unbound in data set [1] and in data set [2] were 0.03 and 0.005, respectively. Moreover, in data set [3], the Vd stood at 2.4 L/kg. Moreover, in data set [4], the chromatographic logD is 4.45. Moreover, the Fraction ionised in data set [6] is recorded as 0.

On to `CCN(CC)CCCC(C)Nc1c2ccc(Cl)cc2nc2ccc(OC)cc12` (stereo not given) [QUINACRINE], for which the fraction unbound in data set [1] came out at 0.103. For the same molecule, the Vd in data set [3] is 223 L/kg. The molecule also showed a chromatographic logD in data set [4] of 1.1. The pKa in data set [5] was determined as 10.2.

For the molecule `C#CCCCC(=O)c1cc(C(C)(C)C)c(O)c(C(C)(C)C)c1` [TEBUFELONE], the fraction unbound was 0.00067 in data set [1] and 8e-06 in data set [2] (tissues). This molecule had a Vd in data set [3] of 31 L/kg. In data set [4], this molecule returned a chromatographic logD of 5.56. Also, the Fraction ionised in data set [6] is 0.

In data set [2] (tissues), `Cc1ccc(O)c([C@H](CCN(C(C)C)C(C)C)c2ccccc2)c1` [TOLTERODINE] showed a fraction unbound of 0.012. The same molecule displayed a Vd in data set [3] of 1.3 L/kg. For the same molecule, in data set [4], the chromatographic logD stood at 1.04. Moreover, the pKa in data set [5] was found to be 9.87. The Fraction ionised in data set [6] is 0.997.

Take `O=c1n(CCCN2CCN(c3cccc(Cl)c3)CC2)nc2ccccn12` [TRAZODONE]: the values for the fraction unbound in data set [1] and in data set [2] (tissues) were 0.07 and 0.03, respectively. Further, the Vd in data set [3] was determined as 1 L/kg. Also, the pKa in data set [5] is 6.79. The molecule further came in with a Fraction ionised in data set [6] of 0.197.
